Assay results from US10000456B2, “Polycyclic compounds as lysophosphatidic acid receptor antagonists” (AMIRA PHARMACEUTICALS, INC., priority 2009, dated 2018).

Experiments:
human LPA1 = target: T1, human LPA1 (Homo sapiens, UniProt Q92633); assay: LPA1 calcium flux assay (HLPA1 Ca Flux); format: cell-based; settings: CHO cells expressing human LPA1, stimulated with 10 nM LPA
T1 construct: the full-length cDNA for human LPA1 was obtained by PCR of the reverse transcription reaction; expressed in transfected cells
Method: A 1.1 kb cDNA encoding the human LPA1 receptor was cloned from human lung. Human lung RNA (Clontech Laboratories, Inc. USA) was reverse transcribed using the RETROSCRIPT® kit (Ambion, Inc.) and the full-length cDNA for human LPA1 was obtained by PCR of the reverse transcription reaction. The nucleotide sequence of the cloned human LPA1 was determined by sequencing and confirmed to be identical to the published human LPA1 sequence (An et al., Biochem. Biophys. Res. Commun., 231:619 (1997). The cDNA was cloned into the pcDNA5/FRT expression plasmid and transfected in CHO cells using Lipofectamine 2000 (Invitrogen Corp., USA). Clones stably expressing human LPA1 were selected using hygromycin and identified as cells that show Ca-influx in response to LPA.
Human LPA1 or LPA3 expressing CHO cells are seeded at 20,000-45,000 cells per well in a 96-well poly-D-lysine coated plate one or two days before the assay. Prior to the assay, the cells are washed once with PBS and then cultured in serum-free media overnight. […] Cells are the stimulated by the addition of 10 nM LPA and intracellular Ca^2+ measured using the FLEXSTATION® 3 (Molecular Devices). IC50s are determined using GraphPad prism analysis of drug titration curves.

[1] = test system: bleomycin-induced lung fibrosis; assay: Bleomycin-induced lung fibrosis model in mice; format: in vivo; settings: acute setting (3 day)
Source text: Female C57Bl/6 mice (Harlan, 25-30 g) are housed 4 per cage, given free access to food and water and allowed to acclimate for at least 7 days prior to test initiation. After the habituation phase, mice are lightly anesthetized with isoflurane (5% in 100% O2) and administered with bleomycin sulfate (0.01-5 U/kg, Henry Schein) via intratracheal instillation (Cuzzocrea, S. et al., Am. J. Physiol. Lung. Cell. Mol. Physiol., 292(5):[…]-[…] (Epub Jan. 12, 2007)). Mice are returned to their cages and monitored daily for the duration of the experiment. Test compound or vehicle is delivered p.o., i.p. or s.c. daily. The route and frequency of dosing is based on previously determined pharmacokinetic properties. […] BALF is analyzed for concentrations of inflammatory, pro-fibrotic and tissue injury biomarkers including transforming growth factor 131, hyaluronic acid, tissue inhibitor of metalloproteinase-1, matrix matelloproteinase-7, connective tissue growth factor and lactate dehydrogenase activity, using commercially available ELISA. […] Total cell counts are then obtained using a HEMAVET® hematology system (Drew Scientific, Wayne, Pa.) and differential cells counts are determined using Shandon cytospin (Thermo Scientific, Waltham, Mass.). […] The data are plotted using GraphPad Prism and statistical differences between groups determined.

[2] = test system: A2058 human melanoma cells; assay: LPA1 chemotaxis assay; format: cell-based; settings: LPA 100 nM, read-out: IC50, inhibition of LPA-driven chemotaxis
Method: Chemotaxis of the A2058 human melanoma cells was measured using the Neuroprobe CHEMOTX® System plates ([…], 5.7 mm diameter sites). The filter sites were coated with 0.001% fibronectin (Sigma) in 20 mM Hepes, pH 7.4 and allowed to dry. A2058 cells were serum-starved for 24 hours, then harvested with Cell Stripper and resuspended in DMEM containing 0.1% fatty-acid-free bovine serum albumin (BSA) to a concentration of 1×10^6/ml. Cells were mixed with an equal volume of test compound (2×) in DMEM containing 0.1% fatty-acid-free BSA and incubated at 37° C. for 15 minutes. LPA (100 nM in DMEM containing 0.1% fatty-acid-free BSA) or vehicle was added to each well of the lower chamber and 50 μl of the cell suspension/test compound mix was applied to the upper portion of the CHEMOTX® plate. Plates were incubated at 37° C. for three hours and then the cells removed from the upper portion by rinsing with PBS and scraping. The filter was dried then stained with HEMA 3® Staining System (Fisher Scientific). The absorbance of the filter was read at 590 nm and IC50s were determined using SYMYX® Assay Explorer.

[3] = test system: highly peritoneal metastatic pancreatic cancer cell line; settings: cited from earlier work
renal fibrosis = settings: compared with LPA1 (−/−) mice; cited from earlier work

T1 sequence (Q92633 whole entry): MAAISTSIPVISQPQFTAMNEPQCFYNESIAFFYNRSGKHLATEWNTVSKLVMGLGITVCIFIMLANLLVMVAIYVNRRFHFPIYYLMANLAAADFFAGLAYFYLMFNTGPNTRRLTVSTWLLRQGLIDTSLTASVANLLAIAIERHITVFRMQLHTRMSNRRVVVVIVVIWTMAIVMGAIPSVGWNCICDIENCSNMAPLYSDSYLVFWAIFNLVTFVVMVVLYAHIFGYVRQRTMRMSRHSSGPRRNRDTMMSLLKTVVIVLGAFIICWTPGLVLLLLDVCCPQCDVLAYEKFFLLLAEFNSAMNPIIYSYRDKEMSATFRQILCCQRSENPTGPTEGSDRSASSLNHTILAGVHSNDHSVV

Structure (SMILES)	IC50 [2] [nM]	further results
Cc1noc(-c2ccc(-c3ccc(C4(C(=O)O)CC4)cc3)cc2)c1Nc1cccc(-c2cccc(C(F)(F)F)c2Cl)n1 [Compound 84, 1-(4′-{4-[6-(2-Chloro-3-trifluoromethyl-phenyl)-pyridin-2-ylamino]-3-methyl-isoxazol-5-yl}-biphenyl-4-yl)-cyclopropanecarboxylic acid]		IC50 (human LPA1): 300 to 1000 nM
Cc1noc(-c2ccc(-c3ccc(C4(C(=O)O)CC4)cc3)cc2)c1C(O)c1cn(Cc2ccccc2)nn1 (single isomer, unassigned) [Compound 19, 1-(4′-{4-[(1-Benzyl-1H-[1,2,3]triazol-4-yl)-hydroxy-methyl]-3-methyl-isoxazol-5-yl}-biphenyl-4-yl)-cyclopropanecarboxylic acid]		collagen concentration in broncheoalveolar lavage fluid (BALF) [1]: significantly reduced; total protein concentration in broncheoalveolar lavage fluid (BALF) [1]: significantly reduced
Cc1noc(-c2ccc(-c3ccc(C4(C(=O)O)CC4)cc3)cc2)c1C(O)c1cn(C(C)c2ccccc2)nn1 (stereo not shown) [Compound 23, 1-[4′-(4-{Hydroxy-[1-(1-phenyl-ethyl)-1H-[1,2,3]triazol-4-yl]-methyl}-3-methyl-isoxazol-5-yl)-biphenyl-4-yl]-cyclopropanecarboxylic acid]	< 100	
Cc1noc(-c2ccc(-c3ccc(C4(C(=O)O)CC4)cc3)cc2)c1Nc1cncc(-c2cccc(F)c2)c1 [Compound 59, 1-(4′-{4-[5-(3-Fluoro-phenyl)-pyridin-3-ylamino]-3-methyl-isoxazol-5-yl}-biphenyl-4-yl)-cyclopropanecarboxylic acid]	< 100	
Cc1noc(-c2ccc(-c3ccc(C4(C(=O)O)CC4)cc3)cc2)c1Nc1cccc(Cc2cccc(F)c2)n1 [Compound 46, 1-(4′-{4-[6-(3-Fluoro-benzyl)-pyridin-2-ylamino]-3-methyl-isoxazol-5-yl}-biphenyl-4-yl)-cyclopropanecarboxylic acid]	< 100	
Cc1noc(-c2ccc(-c3ccc(C4(C(=O)O)CC4)cc3)cc2)c1[C@@H](O)c1cn([C@H](C)c2ccccc2)nn1 [Compound 32, 1-[4′-(4-{(R)-Hydroxy-[1-((R)-1-phenyl-ethyl)-1H-[1,2,3]triazol-4-yl]-methyl}-3-methyl-isoxazol-5-yl)-biphenyl-4-yl]-cyclopropanecarboxylic acid]	< 100	
Cc1noc(-c2ccc(-c3ccc(C4(C(=O)O)CC4)cc3)cc2)c1Nc1cc(-c2ccccc2)ccn1 [Compound 67, 1-{4′-[3-Methyl-4-(4-phenyl-pyridin-2-ylamino)-isoxazol-5-yl]-biphenyl-4-yl}-cyclopropanecarboxylic acid]	< 100	
Cc1noc(-c2ccc(-c3ccc(C4(C(=O)O)CC4)cc3)cc2)c1Nc1cccc(-c2cccc(F)c2Cl)n1 [Compound 81, 1-(4′-{4-[6-(2-Chloro-3-fluoro-phenyl)-pyridin-2-ylamino]-3-methyl-isoxazol-5-yl}-biphenyl-4-yl)-cyclopropanecarboxylic acid]	< 100	
Cc1noc(-c2ccc(-c3ccc(C4(C(=O)O)CC4)cc3)cc2)c1Nc1cccc(Cc2ccc(F)cc2)n1 [Compound 47, 1-(4′-{4-[6-(4-Fluoro-benzyl)-pyridin-2-ylamino]-3-methyl-isoxazol-5-yl}-biphenyl-4-yl)-cyclopropanecarboxylic acid]	< 100	
Cc1noc(-c2ccc(CSCCC(=O)O)cc2)c1NC(=O)OC(C)c1ccccc1Cl (stereo not shown) [Ki16425]		LPA-induced and ascites-induced invasion activity [3]: blocked; development of renal fibrosis in UUO mice (renal fibrosis): closely resembled the LPA1 (−/−) mice
Cc1noc(-c2ccc(-c3ccc(C4(C(=O)O)CC4)cc3)cc2)c1C(O)c1cccc(Cc2ccccc2)c1 (stereo not shown) [Compound 26, 1-(4′-{4-[(3-Benzyl-phenyl)-hydroxy-methyl]-3-methyl-isoxazol-5-yl}-biphenyl-4-yl)-cyclopropanecarboxylic acid]	< 100	
